The record followed here is patent US6110963A, “Aryl-oxo-acetic acids useful in the treatment of insulin resistance and hyperglycemia” (American Home Products Corporation, priority 1999, dated 2000).

In test [1] the target is T1, Human recombinant PTP1B (hPTP1B) (Homo sapiens, UniProt P18031).
T1 construct: made in house
T1 sequence (P18031 1-435): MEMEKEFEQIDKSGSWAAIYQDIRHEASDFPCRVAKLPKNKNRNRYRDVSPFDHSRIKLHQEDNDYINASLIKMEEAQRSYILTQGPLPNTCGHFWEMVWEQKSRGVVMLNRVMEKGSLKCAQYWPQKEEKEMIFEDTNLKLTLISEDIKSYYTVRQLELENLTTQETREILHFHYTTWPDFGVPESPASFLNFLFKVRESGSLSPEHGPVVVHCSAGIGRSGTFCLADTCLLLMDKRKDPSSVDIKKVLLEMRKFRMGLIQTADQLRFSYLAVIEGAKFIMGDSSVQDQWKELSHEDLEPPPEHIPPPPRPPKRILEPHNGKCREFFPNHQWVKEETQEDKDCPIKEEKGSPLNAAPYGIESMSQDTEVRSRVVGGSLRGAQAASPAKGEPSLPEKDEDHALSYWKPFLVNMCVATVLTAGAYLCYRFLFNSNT
The test is classed as biochemical. The note with it: for IC50: recombinant PTP1B, malachite green phosphate detection; for inhibition at 2.5 µM: read-out: change of PTP1B activity (percent of phosphatase control) at single concentration.

Test [2] concerns rat hepatic microsomal PTPases. The note with it: PTPase activity, compound at 50 μM, rat liver microsomes.
The test system of another test is diabetic (ob/ob) mice. Put plainly: Blood glucose lowering activity in diabetic (ob/ob) mice. The conditions noted are these: 100 mg/Kg; for % Change Glucose from Vehicle: plasma glucose. The test is classed as in vivo, mouse. An excerpt:
The procedures used and results obtained are briefly described below.
The non-insulin dependent diabetic (NIDDM) syndrome can be typically characterizes by obesity, hyperglycemia, abnormal insulin secretion, hyperinsulinemia and insulin resistance.
In each test procedure, mice [Male or female ob/ob (C57 B1/6J) and their lean litermates (ob/+ or +/+, Jackson Laboratories) ages 2 to 5 months (10 to 65 g)] of a similar age were randomized according to body weight into 4 groups of 10 mice. The mice were housed 5 per cage and are maintained on normal rodent chow with water ad libitum. Mice received test compound daily by gavage (suspended in 0.5 ml of 0.5% methyl cellulose); dissolved in the drinking water; or admixed in the diet. The dose of compounds given ranges from 2.5 to 200 mg/kg body weight/day. The dose is calculated based on the fed weekly body weight and is expressed as active moiety. […] Control mice received vehicle only.
On the morning of Day 4, 7 or 14 two drops of blood (approximetly 50 ul) were collected into sodium fluoride containing tubes either from the tail vein or after decapitation. For those studies in which the compound was administered daily by gavage the blood samples were collected two hours after compound administration. The plasma was isolated by centrifugation and the concentration of glucose is measured enzymatically on an Abbott V. P. Analyzer.
For each mouse, the percentage change in plasma glucose on Day 4, 7 or 14 is calculated relative to the mean plasma glucose of the vehicle treated mice. Analysis of variance followed by Dunett's Comparison Test (one-tailed) are used to estimate the significant difference between the plasma glucose values from the control group and the individual compound treated groups (CMS SAS Release 5.18).

Read-outs that look alike come from different tables or passages of the source.

Turning to `CCCCc1oc2ccccc2c1C(Sc1nc2ccccc2s1)c1ccc(Br)c2ccccc12` (stereo not shown) [Example 31, 2-[(4-Bromo-naphthalen-1-yl)-(2-butyl-benzofuran-3-yl)-methylsulfanyl]-benzothiazole], in test [1], the 50% inhibitory concentration (IC50) is 0.59 µM.
For the compound `CCCCc1oc2ccccc2c1Cc1ccc2c(I)c(O)ccc2c1` [Example 7, 6-(2-Butyl-benzofuran-3-ylmethyl)-1-iodo-naphthalen-2-ol], the 50% inhibitory concentration (IC50) in test [1] came to 0.31 µM. Further, the “% Change from Control” value in test [2] is -24%.
As for `CCCCc1oc2cc(Br)ccc2c1Cc1nc(Br)c(-c2ccc(OC)cc2)o1` [Example 26], the IC50 in test [1] worked out at 1.24 µM.
`CCCCc1oc2ccccc2c1Cc1ccc2c(Br)c(OCc3nnn[nH]3)ccc2c1` [Example 6, 5-[1-Bromo-6-(2-butyl-benzofuran-3-ylmethyl)-naphthalen-2-yloxymethyl]-1H-tetrazole]: the IC50 in test [1] is 0.7 µM. Moreover, the “% Change from Control” value in test [2] is -62%.
For the compound `CCCCc1oc2ccccc2c1C(O)c1ccc(-c2ccc(O)cc2)cc1` (stereo not shown) [Example 14, 4'-[(2-Butyl-benzofuran-3-yl)-hydroxy-methyl]-biphenyl-4-ol], the IC50 in test [1] is 0.23 µM.
In the case of `CCCCc1oc2ccccc2c1C(O)c1ccc(-c2cc(Br)c(O)c(Br)c2)cc1` (stereo not shown) [Example 20, 3,5-Dibromo-4'-[(2-butyl-benzofuran-3-yl)-hydroxy-methyl]-biphenyl-4-ol], in test [1], the IC50 came out at 1.4 µM. In test [2], the “% Change from Control” value is listed as -22%.
As to `CCCCc1oc2ccccc2c1C(Sc1nc2ccccc2s1)c1ccc(-c2ccc(O)cc2)cc1` (stereo not shown) [Example 28, 4'-[(2-Butyl-benzofuran-3-yl)-(benzothiazol-2-ylsulfanyl)-methyl]-biphenyl-4-ol], the IC50 in test [1] came to 1.16 µM.
For the compound `CCCCc1oc2ccccc2c1C(O)c1ccc(-c2ccc(OCC(=O)O)cc2)cc1` (stereo not shown) [Example 19, {4'-[(2-Butyl-benzofuran-3-yl)-hydroxy-methyl]-biphenyl-4-yloxy}-acetic acid], the IC50 in test [1] is 0.54 µM. For the same compound, the “% Change from Control” value in test [2] is -24%.
For `CCCCc1oc2ccccc2c1Cc1ccc(-c2ccc(OCC(=O)O)cc2)cc1` [Example 17], in that order: 1.15 µM and -76%.
In the case of `CCCCc1oc2ccccc2c1Cc1ccc(-c2ccc(O)cc2)cc1` [Example 16], the IC50 in test [1] was found to be 1.19 µM. The “% Change from Control” value in test [2] is reported as -28%.
As to `CCCCc1oc2ccccc2c1C(O)c1ccc2c(Br)c(O)ccc2c1` (stereo not shown) [Example 9, 1-Bromo-6-[(2-butyl-benzofuran-3-yl)-hydroxy-methyl]-naphthalen-2-ol], in test [1], the IC50 worked out at 0.48 µM. Further, the “% Change Insulin from Vehicle” value in the test on diabetic (ob/ob) mice is given as -38%.
With `CCCCc1oc2ccccc2c1C(=O)c1ccc(-c2ccc(O)cc2)cc1` [Example 15, (2-Butyl-benzofuran-3-yl)-(4'-hydroxy-biphenyl-4-yl)-methanone], the inhibition at 2.5 µM in test [1] stood at 53%. In addition, the “% Change from Control” value in test [2] is -20%.
Take `CCCCc1oc2ccccc2c1C(Sc1nc2ccccc2s1)c1ccccc1` (stereo not shown) [Example 32]: in test [1], the IC50 came out at 1 µM.
As to `CCCCc1oc2ccccc2c1C(Sc1nc2ccccc2s1)c1ccc(Br)cc1` (stereo not shown) [Example 30, 2-[(4-Bromo-phenyl)-(2-butyl-benzofuran-3-yl)-methylsulfanyl]-benzothiazole], the IC50 in test [1] is 0.58 µM.
As for `Oc1ccc2cc(Cc3c(Cc4ccccc4)sc4ccccc34)ccc2c1Br` [Example 13, 6-(2-Benzyl-benzo[b]thiophen-3-ylmethyl)-1-bromo-naphthalen-2-ol], in test [1], the IC50 stood at 1.04 µM. Further, in test [2], the “% Change from Control” value is recorded as -37%.
Consider `CCCCc1oc2ccccc2c1C(O)c1ncc(-c2ccc(OC)cc2)o1` (stereo not shown) [Example 22, (2-Butyl-benzofuran-3-yl)-[5-(4-methoxy-phenyl)-oxazole-2-yl]-methanol], for which the “% Change from Control” value in test [2] was -38%.
For `CCCCc1oc2ccccc2c1Cc1ccc2c(I)c(OC(Cc3ccccc3)C(=O)O)ccc2c1` (stereo not shown) [Example 8], the half-maximal inhibitory concentration (IC50) in test [1] worked out at 0.31 µM. For the same compound, the “% Change from Control” value in test [2] was -58%. In the test with diabetic (ob/ob) mice, the “% Change Insulin from Vehicle” value is on record as -33% and the “% Change Glucose from Vehicle” value is -11%.
For `Brc1cc(Cc2ccc3ccccc3c2)cc(Br)c1OCc1nnn[nH]1` [Example 34, 5-[2,6-Dibromo-4-(naphthalen-2-ylmethyl)-phenoxymethyl]-1H-tetrazole], in the test with diabetic (ob/ob) mice, the “% Change Insulin from Vehicle” value was -18% and the “% Change Glucose from Vehicle” value is reported as -27.8%.
Regarding `CCCCc1oc2ccccc2c1C(=O)c1ccc2c(Br)c(OCC(=O)O)ccc2c1` [Example 10, [1-Bromo-6-(2-butyl-benzofuran-3-carbonyl)-naphthalen-2-yloxy]-acetic acid], in test [1] (compound at 2.5 uM), the inhibition at 2.5 µM amounted to 46%. Also, the “% Change from Control” value in test [2] was -69%.
On to `CCCCc1oc2ccccc2c1Cc1ncc(-c2ccc(OC)cc2)o1` [Example 24, 2-(2-Butyl-benzofuran-3-ymethyl)-5-(4-methoxy-phenyl)-oxazole], for which the inhibition at 2.5 µM in test [1] (compound at 2.5 uM) is 35%.
Take `CCCCCCCC(Sc1nc2ccccc2s1)c1cc2ccccc2s1` (stereo not shown) [Example 29, 2-[1-(Benzorblthiophen-2-yl)-octylsulfanyl]-benzothiazole]: in test [1], the IC50 turned out to be 1.86 µM. In test [2], the “% Change from Control” value is -24%.
Turning to `CCCCc1oc2ccccc2c1C(Sc1nc2ccccc2s1)c1ccc2cc(O)ccc2c1` (stereo not shown) [Example 27], the IC50 in test [1] is 1 µM.
On to `CCCCc1oc2ccccc2c1Cc1ccc(-c2ccc(OCc3nnn[nH]3)cc2)cc1` [Example 18], for which the IC50 in test [1] was found to be 0.51 µM.
With `Oc1ccc(-c2ccc(C(O)c3c(Cc4ccccc4)sc4ccccc34)cc2)cc1` (stereo not shown) [Example 21, 4'-[(2-Benzyl-benzorblthiophen-3-yl)-hydroxy-methyl]-biphenyl-4-ol], the inhibition at 2.5 µM in test [1] (compound at 2.5 uM) amounted to 36%.
For the compound `CCCCc1oc2ccccc2c1C(O)c1ccc2cc(O)ccc2c1` (stereo not shown) [Example 1], the IC50 in test [1] is 1.16 µM. The “% Change from Control” value in test [2] is given as -31%.
For `CCCCc1oc2ccccc2c1C(=O)c1ncc(-c2ccc(OC)cc2)o1` [Example 23, (2-Butyl-benzofuran-3-yl)-[5-(4-methoxy-phenyl)-oxazole-2-yl]-methanone], the inhibition at 2.5 µM in test [1] (compound at 2.5 uM) was 55%.
For the compound `CCCCc1oc2ccccc2c1Cc1ccc2cc(O)ccc2c1` [Example 2], the IC50 in test [1] was 1.35 µM. The “% Change from Control” value in test [2] is recorded as -37%.
On to `CCCCc1oc2ccccc2c1C(=O)c1nc(Br)c(-c2ccc(OC)cc2)o1` [Example 25, [4-Bromo-5-(4-methoxy-phenyl)-oxazol-2-yl]-(2-butyl-benzofuran-3-yl)-methanone], for which the 50% inhibitory concentration (IC50) in test [1] was 1.36 µM.
For the compound `CCCCc1oc2ccccc2c1Cc1ccc2c(Br)c(OCC(=O)O)ccc2c1` [Example 4, [1-Bromo-6-(2-butyl-benzofuran-3-ylmethyl)-naphthalen-2-yloxy]-acetic acid], in test [1], the IC50 was 1.44 µM. Further, the “% Change from Control” value in test [2] is listed as -65%.
As to `CCCCc1oc2ccccc2c1Cc1ccc2c(Br)c(OC(Cc3ccccc3)C(=O)O)ccc2c1` (stereo not shown) [Example 5, 2-[1-Bromo-6-(2-butyl-benzofuran-3-ylmethyl)-naphthalen-2-yloxy]-3-phenylpropionic acid], the IC50 in test [1] turned out to be 0.37 µM. Further, in test [2], the “% Change from Control” value is -59%. Moreover, in the test on diabetic (ob/ob) mice, the “% Change Glucose from Vehicle” value was -25.6%.
With `CCCCc1oc2ccccc2c1Cc1ccc2c(Br)c(O)ccc2c1` [Example 3, 1-Bromo-6-(2-butyl-benzofuran-3-ylmethyl)-naphthalen-2-ol], the IC50 in test [1] is 0.33 µM. In addition, in test [2], the “% Change from Control” value is on record as -37%.
As for `CCCCc1oc2ccccc2c1C(=O)c1ccc2c(Br)c(OC(Cc3ccccc3)C(=O)O)ccc2c1` (stereo not shown) [Example 11, 2-[1-Bromo-6-(2-butyl-benzofuran-3-carbonyl)-naphthalen-2-yloxy]-3-phenylpropionic acid], the IC50 in test [1] was 1.23 µM. Further, the “% Change from Control” value in test [2] is -77%.
`CCCCc1oc2ccccc2c1C(=O)c1ccc2c(Br)c(OCc3nnn[nH]3)ccc2c1` [Example 12, [5-bromo-6-(1H-tetrazol-5-ylmethoxy)-naphthalen-2-yl]-(2-butyl-benzofuran-3-yl)methanone]: the IC50 in test [1] is 1.13 µM. The “% Change from Control” value in test [2] is -70%. Besides, in the test with diabetic (ob/ob) mice, the “% Change Insulin from Vehicle” value was 12% and the “% Change Glucose from Vehicle” value is reported as -24.8%.
